From article PMC10449621, “Engineering cellular communication between light-activated synthetic cells and bacteria” (Nature Chemical Biology, 2023)
Where “and” joins values, the source holds several entries; their conditions need not be identical. Equal entries are not always repeated.

System: BjaRWT (B0033|ATG) receiver cells
Assay: BjaR receiver cell AHSL dose-response (gfp reporter, plate reader)
Type: cell-based, E. coli XL10-Gold
From the text: These findings are consistent with the predicted translation initiation rates of the respective sequences—translation from the BBa_B0033 RBS provides 1% of protein yield compared to the BBa_B0034 RBS, just as an CTG start codon provides 1% of the protein yield compared to an ATG start codon[30],[31]. This also offers support as to why the ON-state gfp expression level increased in variants with a tighter OFF-state; more cellular resources were available for GFP synthesis when comparatively fewer were allocated to BjaR synthesis. To elucidate the impact of the S107R variant on gene circuit performance, we introduced the S107R variant alone back into the bjaRWT gene, in the context of the BBa_B0033 RBS background.
In addition to quantifying how these BjaR receiver cells responded to their branched, cognate ligand, we also sought to determine whether the BjaR receiver cells could be activated by structurally dissimilar AHSLs involved in the LuxI/R, EsaI/R, LasI/R and RhlI/R QS systems previously used in synthetic cell communication[5],[7],[8]. To this end, we measured the fluorescence of BjaR receiver cells grown in the presence of their activators, 3OC6-HSL, 3OC12-HSL and C4-HSL, respectively (Supplementary Fig. 13a).
The BjaR reporter plasmids were retransformed into E. coli XL10-Gold cells for each experiment. A single colony was used to inoculate 5 ml LB + Amp media and incubated at 37 °C, 225 r.p.m. overnight. Overnight cultures were diluted 1/250 or 1/500 in 5 ml M9 minimal media + Amp and incubated at 37 °C, 225 r.p.m. for 3 h and 45 min (until OD600 = ~0.075). Cultures were diluted down to OD600 = 0.05 with M9 minimal media + Amp, and 200 µl was added to wells of a 96-well plate containing 1 µl IV-HSL dissolved in DMSO or 1 µl BjaI CFPS reactions (IV-HSL concentrations obtained from serial dilution from 63.2 µM to 632 pM; final DMSO concentration = 0.5%). Cells were incubated at 37 °C, 800 r.p.m., in a thermomixer with a heated lid for 4 h. Fluorescence and OD600 were measured in a Tecan M1000 infinite plate reader (excitation, 488 nm; emission, 510 nm; bandwidth, 5 nm; gain, 101 and z position, 21,311 µm). The dose–response curves were fitted to the function indicated by Eq. (1), where a = maximal fluorescence output, b = basal fluorescence output, X = concentration of AHSL, GFP = fluorescence at the given condition, EC50 = AHSL at 50% maximal fluorescence output and h = hill coefficient. EC50 and h were derived using the nonlinear regression model based on Eq. (1), in MATLAB. A summary of the dose–response data is available in Supplementary Table 1.1 GFP=b+a−b/1+10^logEC50−X×h

SMILES: CC(C)CC(=O)N[C@H]1CCOC1=O [IV-HSL, N-isovaleryl-L-homoserine lactone]
- EC50 (Escherichia coli, IV-HSL-activated gfp expression): 3.93 ± 0.38 nM
- hill coefficient (IV-HSL dose-response curve): 1.38
- GFP (Log([ASHL]) -6.5): 47248 and 37500
- Mean normalised fluorescence (Log([ASHL]) -6.5): 200159
- Normalised fluorescence (Log([ASHL]) -6.5): 212521 and 200332 and 187623
- Mean normalised fluorescence (Log([ASHL]) -6.5, sheet 3e): 184419
- Mean normalised fluorescence (Log([ASHL]) -6.5, sheet 3d): 198983
- Normalised fluorescence (Log([ASHL]) -6.5, sheet 3d, Expt1-3): 211719 and 182929
- GFP (Log([ASHL]) -7): 45353 and 37555
- Mean normalised fluorescence (Log([ASHL]) -7): 189629
- Normalised fluorescence (Log([ASHL]) -7): 198623 and 195600 and 174664
- Mean normalised fluorescence (Log([ASHL]) -7, sheet 3e): 176709
- Mean normalised fluorescence (Log([ASHL]) -7, sheet 3d): 188606
- Normalised fluorescence (Log([ASHL]) -7, sheet 3d, Expt1-3): 197885 and 170457
- GFP (Log([ASHL]) -7.5): 45933 and 37587 and 40718
- Mean normalised fluorescence (Log([ASHL]) -7.5): 182276
- Normalised fluorescence (Log([ASHL]) -7.5): 179523 and 192948 and 174359
- Mean normalised fluorescence (Log([ASHL]) -7.5, sheet 3e): 170191
- Mean normalised fluorescence (Log([ASHL]) -7.5, sheet 3d): 181297
- Normalised fluorescence (Log([ASHL]) -7.5, sheet 3d, Expt1-3): 178915 and 170205 and 194772
- GFP (Log([ASHL]) -8): 37611 and 40673
- Mean normalised fluorescence (Log([ASHL]) -8): 167362
- Normalised fluorescence (Log([ASHL]) -8): 183805 and 164832 and 153451
- Mean normalised fluorescence (Log([ASHL]) -8, sheet 3e): 154256
- Mean normalised fluorescence (Log([ASHL]) -8, sheet 3d): 166513
- Normalised fluorescence (Log([ASHL]) -8, sheet 3d, Expt1-3): 161111 and 185459
- GFP (Log([ASHL]) -8.5): 37118 and 36825
- Mean normalised fluorescence (Log([ASHL]) -8.5): 127411
- Normalised fluorescence (Log([ASHL]) -8.5): 156949 and 139152 and 86132.6
- Mean normalised fluorescence (Log([ASHL]) -8.5, sheet 3e): 106537
- Mean normalised fluorescence (Log([ASHL]) -8.5, sheet 3d): 126734
- Normalised fluorescence (Log([ASHL]) -8.5, sheet 3d, Expt1-3): 136219 and 158173
- Mean normalised fluorescence (Log([ASHL]) -9): 62693.3
- Mean normalised fluorescence (Log([ASHL]) -9, sheet 3e): 40066
- Mean normalised fluorescence (Log([ASHL]) -9, sheet 3d): 62287.6
- Mean normalised fluorescence (Log([ASHL]) -9.5): 17191.4
- Mean normalised fluorescence (Log([ASHL]) -9.5, sheet 3e): 9895.56
- Mean normalised fluorescence (Log([ASHL]) -9.5, sheet 3d): 17095.5
- Mean normalised fluorescence (Log([ASHL]) -10): 3897.48
- Mean normalised fluorescence (Log([ASHL]) -10, sheet 3e): 2635.87
- Mean normalised fluorescence (Log([ASHL]) -10, sheet 3d): 3848.29
- GFP (Log([ASHL]) -10.5): 559 and 459
- Mean normalised fluorescence (Log([ASHL]) -10.5): 1658.33
- Normalised fluorescence (Log([ASHL]) -10.5): 2009.19 and 1558.44 and 1407.36
- Mean normalised fluorescence (Log([ASHL]) -10.5, sheet 3e): 1317.17
- Mean normalised fluorescence (Log([ASHL]) -10.5, sheet 3d): 1623.48
- Normalised fluorescence (Log([ASHL]) -10.5, sheet 3d, Expt1-3): 1531.14 and 2041.25
- GFP (Log([ASHL]) -11): 433 and 333 and 432
- Mean normalised fluorescence (Log([ASHL]) -11): 1322.92
- Normalised fluorescence (Log([ASHL]) -11): 1515.8 and 1009.39 and 1443.57
- Mean normalised fluorescence (Log([ASHL]) -11, sheet 3e): 1095.36
- Mean normalised fluorescence (Log([ASHL]) -11, sheet 3d): 1289.12
- Normalised fluorescence (Log([ASHL]) -11, sheet 3d, Expt1-3): 995.025 and 1544.75 and 1327.6
- GFP (Log([ASHL]) -11.5): 418 and 424 and 326
- Mean normalised fluorescence (Log([ASHL]) -11.5): 1299.42
- Normalised fluorescence (Log([ASHL]) -11.5): 1462.99 and 1426.41 and 1008.84
- Mean normalised fluorescence (Log([ASHL]) -11.5, sheet 3e): 1097.76
- Mean normalised fluorescence (Log([ASHL]) -11.5, sheet 3d): 1265.1
- Normalised fluorescence (Log([ASHL]) -11.5, sheet 3d, Expt1-3): 994.106 and 1309.43 and 1491.76
